For 25 compounds, IC50 and AC50 results are on record in US20240366612A1, “COMPOUNDS AND METHODS FOR MODULATING NUCLEIC ACID SPLICING” (REMIX THERAPEUTICS INC., priority 2021, published 2024).

Test [1] relates to HiBiT-tagged MYB protein in K562 cells. In words: HiBiT protein abundance assay, MYB. Conditions: HiBiT-modified K562 cells, 24 hours, luminescence. The class given is cell-based, human. The procedure, abridged: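 K562 lines with the endogenous target HiBiT-tagged, seeded in IMDM+1% FBS, got a 10-point 3-fold dilution series (top final 10 μM, DMSO ≤0.25%) for 24 hours at 37° C. Lytic LgBiT luminescence was normalized against unmodified-K562 and DMSO-only controls, and IC50 was interpolated at 50% from a four-parameter logistic fit.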
On the technique in general: HiBiT is a short tag that completes a luciferase, so light tracks the accessible tagged protein.

The next test deals with MYB mRNA. Briefly: Splicing RT-qPCR assay, MYB canonical (CJ) and alternative (AJ) junction mRNA. The format is cell-based. Conditions: Homo sapiens, A673 or K562 cells, 24 hours treatment; for IC50: decrease in CJ mRNA; for AC50: increase in AJ mRNA. The gist of the method:
(§1)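 Compound-treated A673 or K562 cells (11-point 3-fold dilution, top dose 10 uM final, DMSO ≤0.25%) were incubated for 24 h at 37° C. Lysates underwent one-step RT-qPCR for canonical and alternative-exon junction isoforms. Normalization used PPIA for A673 and GAPDH or GUSB for K562.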
On the technique in general: Real-time PCR tracks product formation cycle by cycle.

For the next test, the system named is HTT mRNA. Briefly: Splicing RT-qPCR assay, HTT canonical (CJ) and alternative (AJ) junction mRNA. The format is cell-based. Conditions: Homo sapiens, A673 or K562 cells, 24 hours treatment; for IC50: decrease in CJ mRNA; for AC50: increase in AJ mRNA. The procedure, abridged:
as §1

The term IC50 denotes the concentration that gives 50% inhibition. Low values mean greater potency, high ones weaker potency. By AC50 is commonly meant the concentration giving half of the maximal activity seen. Turning to `COc1cc(-c2cc3ncn(C4CCNCC4)c(=O)c3s2)cnn1` [Compound 260], the IC50 (in test [1]; with MYB mRNA; in the test on HTT mRNA) was 1 to 10 µM in each case. Besides, the AC50 in the test with MYB mRNA and in the test with HTT mRNA was 1 to 10 µM each time.

Turning to `Cc1cn2cc(-c3cc4ncn(C5CCNCC5)c(=O)c4s3)cc(C)c2n1` [Compound 261], the IC50 (in test [1]; with MYB mRNA; in the test with HTT mRNA) was 0.1 to 1 µM each time. Also, the half-maximal activity concentration (AC50) in the test with MYB mRNA fell in the range of 0.1 to 1 µM; in the test with HTT mRNA it was 1 to 10 µM.

Consider `Cc1cn2nc(-c3cc4ncn(C5CCNCC5)c(=O)c4s3)cc2c(C)n1` [Compound 262], for which the 50% inhibitory concentration (IC50) (in test [1]; in the test with MYB mRNA; in the test with HTT mRNA) was 0.1 to 1 µM each time. Further, the AC50 with MYB mRNA and in the test with HTT mRNA was 0.1 to 1 µM each time.

`COc1cc(-c2cc3ncn(C4CCNCC4)c(=O)c3s2)ccn1` [Compound 263]: the concentration for half-maximal inhibition (IC50) (in test [1]; in the test with MYB mRNA; in the test on HTT mRNA) was 1 to 10 µM each time. Also, the AC50 in the test with MYB mRNA and with HTT mRNA was 1 to 10 µM throughout.

As for `Cc1cn2cc(-c3cc4ncn(C5CCNCC5)c(=O)c4s3)ncc2n1` [Compound 264], the IC50 (in test [1]; in the test on MYB mRNA; in the test with HTT mRNA) was 1 to 10 µM each time. Further, the half-maximal activity concentration (AC50) in the test with MYB mRNA and in the test on HTT mRNA was 1 to 10 µM each time.

Consider `Cc1cn2cc(-c3cc4ncn(C5CCN(C)CC5)c(=O)c4s3)cc(F)c2n1` [Compound 265, 6-{8-fluoro-2-methylimidazo[1,2-a]pyridin-6-yl}-3-(1-methylpiperidin-4-yl)thieno[3,2-d]pyrimidin-4-one], for which the IC50 (in test [1]; in the test on MYB mRNA; in the test with HTT mRNA) was 0.1 to 1 µM throughout. Also, the AC50 in the test with MYB mRNA and in the test with HTT mRNA was 0.1 to 1 µM throughout.

Take `Cc1cn2nc(-c3nc4sc(N5CCNCC5)nc4c(=O)[nH]3)cc2c(C)n1` [Compound 267]: the half-inhibitory concentration (IC50) (in test [1]; with MYB mRNA; with HTT mRNA) was 0.1 to 1 µM in each case. Further, the half-maximal activity concentration (AC50) in the test on MYB mRNA and in the test with HTT mRNA was 0.1 to 1 µM each time.

As for `Cc1cn2nc(-c3nc4sc(N5CCN(C)CC5)nc4c(=O)[nH]3)cc2c(C)n1` [Compound 268], the IC50 (in test [1]; in the test on MYB mRNA; in the test with HTT mRNA) was over 10 µM each time. Moreover, the half-maximal activity concentration (AC50) was 1 to 10 µM with MYB mRNA and over 10 µM in the test with HTT mRNA.

As to `Cc1cn2cc(-c3cc4ncn(N5CCNCC5)c(=O)c4s3)cc(F)c2n1` [Compound 269, 6-{8-fluoro-2-methylimidazo[1,2-a]pyridin-6-yl}-3-(piperazin-1-yl)thieno[3,2-d]pyrimidin-4-one], the IC50 (in test [1]; in the test on MYB mRNA; in the test with HTT mRNA) was 0.1 to 1 µM throughout. Besides, the concentration at half-maximal activity (AC50) with MYB mRNA and with HTT mRNA was 0.1 to 1 µM throughout.

Consider `Cc1cn2cc(-c3cc4ncn(C5CCNC5)c(=O)c4s3)cc(F)c2n1` (centres unmarked) [Compound 270, 6-{8-fluoro-2-methylimidazo[1,2-a]pyridin-6-yl}-3-(pyrrolidin-3-yl)thieno[3,2-d]pyrimidin-4-one], for which the IC50 (in test [1]; in the test on MYB mRNA; in the test on HTT mRNA) was 0.1 to 1 µM each time. Further, the half-maximal activity concentration (AC50) in the test with MYB mRNA and in the test with HTT mRNA was 0.1 to 1 µM in each case.

On to `Cc1nc(-c2cc3ncn(C4CCNCC4)c(=O)c3s2)cc2cn(C)nc12` [Compound 271], for which the half-inhibitory concentration (IC50) lay in the range of 1 to 10 µM in test [1], 0.1 to 1 µM with MYB mRNA and 1 to 10 µM with HTT mRNA. The AC50 in the test on MYB mRNA and in the test on HTT mRNA was 1 to 10 µM throughout.

Regarding `Cc1cn2cc(-c3cc4ncn(C5CCNCC5(F)F)c(=O)c4s3)cc(F)c2n1` (centres unmarked) [Compound 274, 3-(3,3-difluoropiperidin-4-yl)-6-{8-fluoro-2-methylimidazo[1,2-a]pyridin-6-yl}thieno[3,2-d]pyrimidin-4-one], the concentration for half-maximal inhibition (IC50) (in test [1]; in the test with MYB mRNA; with HTT mRNA) was over 10 µM each time. Further, the figures for the half-maximal activity concentration (AC50) in the test on MYB mRNA and in the test on HTT mRNA were over 10 µM and 1 to 10 µM, respectively.

As to `Cc1cn2cc(-c3cc4ncn(C5CCCNCC5)c(=O)c4s3)cc(F)c2n1` (centres unmarked) [Compound 275, 3-(azepan-4-yl)-6-{8-fluoro-2-methylimidazo[1,2-a]pyridin-6-yl}thieno[3,2-d]pyrimidin-4-one], the concentration for half-maximal inhibition (IC50) (in test [1]; in the test with MYB mRNA; in the test with HTT mRNA) was 0.1 to 1 µM throughout. Besides, the half-maximal activity concentration (AC50) with MYB mRNA and in the test with HTT mRNA was 0.1 to 1 µM each time.

Regarding `Cc1cn2cc(-c3cc4ncn(C5=CCNCC5)c(=O)c4s3)cc(F)c2n1` [Compound 276, 6-{8-fluoro-2-methylimidazo[1,2-a]pyridin-6-yl}-3-(1,2,3,6-tetrahydropyridin-4-yl)thieno[3,2-d]pyrimidin-4-one], the concentration for half-maximal inhibition (IC50) (in test [1]; in the test with MYB mRNA; with HTT mRNA) was 0.1 to 1 µM throughout. Moreover, the AC50 in the test with MYB mRNA and in the test with HTT mRNA was 0.1 to 1 µM throughout.

For `Cc1cn2cc(-c3cc4ncn(C5CNCCC5=O)c(=O)c4s3)cc(F)c2n1` (centres unmarked) [Compound 279, 3-(6-{8-fluoro-2-methylimidazo[1,2-a]pyridin-6-yl}-4-oxothieno [3,2-d]pyrimidin-3-yl)piperidin-4-one], the IC50 (in test [1]; in the test on MYB mRNA; with HTT mRNA) was over 10 µM in each case. For the same compound, the AC50 in the test on MYB mRNA and with HTT mRNA was over 10 µM throughout.

For `Cc1cn2cc(N3CCc4cc(C5CCNCC5)sc4C3=O)cc(F)c2n1` [Compound 800, 6-[8-fluoro-2-methylimidazo[1,2-a]pyridin-6-yl]-2-(piperidin-4-yl)-4H,5H-thieno[2,3-c]pyridin-7-one], the IC50 (in test [1]; in the test with MYB mRNA; with HTT mRNA) was over 10 µM throughout. Besides, the half-maximal activity concentration (AC50) in the test with MYB mRNA and in the test with HTT mRNA was over 10 µM throughout.

`Cc1cn2cc(-n3ccc4cc(C5CCNCC5)sc4c3=O)cc(F)c2n1` [Compound 801, 6-[8-fluoro-2-methylimidazo[1,2-a]pyridin-6-yl]-2-(piperidin-4-yl)thieno[2,3-c]pyridin-7-one]: the IC50 (in test [1]; in the test with MYB mRNA; with HTT mRNA) was over 10 µM in each case. Further, the AC50 in the test with MYB mRNA and in the test on HTT mRNA was over 10 µM throughout.

`Cc1cc(-c2cc3cnn(C4CCNCC4)c(=O)c3s2)cc2cn(C)nc12` [Compound 802, 2-(2,7-dimethyl-2H-indazol-5-yl)-6-(piperidin-4-yl)thieno[2,3-d]pyridazin-7(6H)-one]: the IC50 (in test [1]; with MYB mRNA; in the test with HTT mRNA) was 0.1 to 1 µM in each case. The AC50 with MYB mRNA and with HTT mRNA was 0.1 to 1 µM each time.

For `Cc1cn2cc(-c3cc4ccn(C5CCNCC5)c(=O)c4s3)cc(F)c2n1` [Compound 804, 2-(8-fluoro-2-methylimidazo[1,2-a]pyridin-6-yl)-6-(piperidin-4-yl)thieno[2,3-c]pyridin-7(6H)-one], the IC50 (in test [1]; in the test with MYB mRNA; in the test with HTT mRNA) was 0.1 to 1 µM each time. Besides, the AC50 in the test on MYB mRNA and in the test on HTT mRNA was 0.1 to 1 µM throughout.

For `Cc1cc(-c2cc3ccn(C4CCNCC4)c(=O)c3s2)cc2cn(C)nc12` [Compound 805, 2-(2,7-dimethyl-2H-indazol-5-yl)-6-(piperidin-4-yl)thieno[2,3-c]pyridin-7(6H)-one], the IC50 (in test [1]; in the test with MYB mRNA; in the test on HTT mRNA) was 0.1 to 1 µM in each case. Also, the half-maximal activity concentration (AC50) in the test with MYB mRNA and in the test with HTT mRNA was 0.1 to 1 µM in each case.

As to `Cc1cn2nc(-c3cc4ccn(C5CCNCC5)c(=O)c4s3)cc(C)c2n1` [Compound 806, 2-(2,8-dimethylimidazo[1,2-b]pyridazin-6-yl)-6-(piperidin-4-yl)thieno[2,3-c]pyridin-7(6H)-one], the IC50 (in test [1]; in the test with MYB mRNA; with HTT mRNA) was 0.1 to 1 µM throughout. Moreover, the AC50 in the test on MYB mRNA and in the test on HTT mRNA was 0.1 to 1 µM in each case.

`Cc1cn2cc(-c3cc4ccn(C5CCN(C)CC5)c(=O)c4s3)cc(F)c2n1` [Compound 808, 2-(8-fluoro-2-methylimidazo[1,2-a]pyridin-6-yl)-6-(1-methylpiperidin-4-yl)thieno[2,3-c]pyridin-7(6H)-one]: the IC50 (in test [1]; in the test with MYB mRNA; in the test on HTT mRNA) was 0.1 to 1 µM each time. In addition, the AC50 lay in the range of 0.1 to 1 µM in the test with MYB mRNA and 1 to 10 µM with HTT mRNA.

Turning to `Cc1cn2nc(-c3cc4ccn(C5CCN(C)CC5)c(=O)c4s3)cc(C)c2n1` [Compound 809], the half-maximal inhibitory concentration (IC50) (in test [1]; in the test with MYB mRNA; in the test on HTT mRNA) was 1 to 10 µM each time. Moreover, the AC50 in the test with MYB mRNA and with HTT mRNA was 1 to 10 µM throughout.

Take `Cc1cn2nc(-c3nc4cnn(C5CCNCC5)c(=O)c4s3)cc(C)c2n1` [Compound 810]: the IC50 (in test [1]; in the test on MYB mRNA; in the test on HTT mRNA) was 0.1 to 1 µM each time. Further, the AC50 in the test with MYB mRNA and in the test on HTT mRNA was 0.1 to 1 µM each time.

As for `Cc1nc(-c2nc3cnn(C4CCNCC4)c(=O)c3s2)cc2cn(C)nc12` [Compound 811], the IC50 (in test [1]; in the test with MYB mRNA; in the test on HTT mRNA) was 1 to 10 µM each time. In addition, the AC50 in the test with MYB mRNA and in the test with HTT mRNA was 1 to 10 µM each time.
